In patent US9187465B2, “Oxazole tyrosine kinase inhibitors” (Sareum Limited, priority 2007, dated 2015):
Counter-ions that a name gives are not always drawn.

What was measured:
Type in all cases: biochemical
[1] = target: T1, human FLT4 (Homo sapiens, UniProt P35916); assay: FLT4 kinase assay (DELFIA enzyme inhibition); conditions: read-out: FLT4 IC50
T1 construct: a construct expressing the human FLT4 (789-1207) with an amino terminal GST tag; host or cells: Sf9 insect cells (baculovirus)
Summary of the method: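 Read-out is DELFIA: biotinylated MET Tyr1253-derived peptide captured on Neutravidin, phosphotyrosine detected by Eu-antibody time-resolved fluorescence. Enzyme is Sf9-expressed GST-FLT4 (789-1207), reacting 30 min at room temperature before EDTA stop. IC50 derived from plotted % inhibition.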

[2] = target: T2, human FLT3 (Homo sapiens, UniProt P36888); assay: FLT3 kinase assay (DELFIA enzyme inhibition)
T2 construct: a construct expressing the human FLT3 (564-993) with an amino terminal GST tag; host or cells: Sf9 insect cells (baculovirus)
T2 sequence (P36888 564-993): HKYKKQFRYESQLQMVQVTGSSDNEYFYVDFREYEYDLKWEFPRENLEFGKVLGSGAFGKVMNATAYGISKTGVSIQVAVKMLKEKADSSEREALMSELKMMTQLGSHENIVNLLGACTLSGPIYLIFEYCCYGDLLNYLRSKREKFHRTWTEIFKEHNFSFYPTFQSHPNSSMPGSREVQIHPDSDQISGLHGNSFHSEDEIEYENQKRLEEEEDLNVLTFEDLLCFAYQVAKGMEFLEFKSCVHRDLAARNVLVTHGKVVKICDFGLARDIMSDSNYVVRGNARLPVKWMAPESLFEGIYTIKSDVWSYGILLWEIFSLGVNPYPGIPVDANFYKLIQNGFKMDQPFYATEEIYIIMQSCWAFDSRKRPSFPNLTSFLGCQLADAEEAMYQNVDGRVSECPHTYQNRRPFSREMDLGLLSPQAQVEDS
Procedure: A GST-kinase fusion protein of 70 KDa was produced using sf9 baculovirus expression system, with a construct expressing the human FLT3 (564-993) with an amino terminal GST tag. The protein was purified by one-step affinity chromatography using glutathione-agarose.
FLT3 enzyme activity is determined using a Dissociation Enhanced Lanthanide Fluorescent Immunoassay (DELFIA) with a peptide substrate derived from the Gastrin Precursor (Tyr 87) peptide […] with a core sequence: EAYGW.
The amount of phosphorylated peptide produced is detected by means of a phospho-Tyrosine specific Europium-labelled antibody using Time-Resolved Fluorescence at Excitation 360-35 nm and Emission 620-35 nm.
Assay reactions are set up in a 25 uL final volume on a 96 well plate. […] The reaction is allowed to proceed for 30 minutes at room temperature before stopping with 100 μL Stop solution comprising of 100 mM EDTA, 1×BSA blocker in TBS (Perbio) and 0.05% Surfact-Amps20 (Perbio).
The stopped reaction is transferred to a black 96-well Neutravidin-coated plate (Perbio) and incubated for 30 minutes to capture the biotinylated peptide substrate. After washing wells 3 times with 200 uL TBS/T buffer, Anti-Phospho-Tyr-100 antibody labelled with Eu—N1 (Perkin Elmer AD0159) is added to all wells for 60 minutes at room temperature. After a repeat washing step, DELFIA Enhancement solution (Perkin Elmer) is added to all wells for 5 minutes and the fluorescence measured on a plate reader Analyst HT (Molecular Devices).
The % inhibition of the activity is calculated and plotted in order to determine the concentration of test compound required to inhibit 50% of the enzyme activity (IC50).

[3] = target: T3, human Aurora A (Homo sapiens, UniProt O14965); assay: Aurora A kinase assay (DELFIA enzyme inhibition); conditions: read-out: Aurora A IC50
T3 construct: Histidine tag (N); host or cells: Sf9 insect cells (baculovirus)
T3 sequence (O14965 1-403): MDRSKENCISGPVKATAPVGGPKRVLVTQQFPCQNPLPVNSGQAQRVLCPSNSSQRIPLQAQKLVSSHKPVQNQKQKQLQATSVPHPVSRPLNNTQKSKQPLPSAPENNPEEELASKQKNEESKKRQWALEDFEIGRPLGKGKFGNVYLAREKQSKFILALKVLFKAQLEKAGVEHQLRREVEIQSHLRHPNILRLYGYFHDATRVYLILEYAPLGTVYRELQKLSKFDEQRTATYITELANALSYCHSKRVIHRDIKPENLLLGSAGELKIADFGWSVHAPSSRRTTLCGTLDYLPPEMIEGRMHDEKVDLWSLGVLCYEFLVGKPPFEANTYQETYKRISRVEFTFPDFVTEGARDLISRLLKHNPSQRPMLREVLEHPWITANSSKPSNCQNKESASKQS
Summary of the method: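 DELFIA read-out (time-resolved Eu fluorescence, 620 nm emission) after Neutravidin capture of biotinylated peptide substrate and antibody detection. Reaction: Ni-agarose-purified Aurora A, 30 min at room temperature, stopped with 100 mM EDTA.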

T1 sequence (P35916 789-1207): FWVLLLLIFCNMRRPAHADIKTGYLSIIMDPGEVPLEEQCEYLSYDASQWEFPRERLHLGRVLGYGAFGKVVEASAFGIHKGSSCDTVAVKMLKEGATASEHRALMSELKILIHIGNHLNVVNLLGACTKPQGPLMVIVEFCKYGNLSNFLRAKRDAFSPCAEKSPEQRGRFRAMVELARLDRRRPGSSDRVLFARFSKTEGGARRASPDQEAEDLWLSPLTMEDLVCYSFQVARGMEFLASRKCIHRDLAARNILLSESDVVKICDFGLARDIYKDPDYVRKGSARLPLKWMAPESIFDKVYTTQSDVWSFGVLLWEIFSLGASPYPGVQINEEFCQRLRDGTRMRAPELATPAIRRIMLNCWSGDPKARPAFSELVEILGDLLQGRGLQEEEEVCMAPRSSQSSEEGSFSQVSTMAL

IC50 [1] [µM] | IC50 [2] [µM] | IC50 [3] [µM] | Compound
< 10 | < 100 | < 10 | NC(=O)c1nc(-c2c(F)cccc2F)oc1-c1ccc(CN2CCNCC2)cc1 [Example G-1, 2-(2,6-difluorophenyl)-5-(4-(piperazin-1-ylmethyl)phenyl)oxazole-4-carboxamide]
< 10 | < 10 | < 10 | NC(=O)c1nc(-c2c(F)cccc2F)oc1-c1ccc(N2CCNCC2)nc1 [Example G-2, 2-(2,6-difluorophenyl)-5-(6-(piperazin-1-yl)pyridin-3-yl)oxazole-4-carboxamide dihydrochloride]
< 10 | < 10 | < 10 | NC(=O)c1nc(-c2ccccc2F)oc1-c1ccc(N2CCNCC2)cc1 [Example G-4, 2-(2-fluorophenyl)-5-(4-(piperazin-1-yl)phenyl)oxazole-4-carboxamide]
< 10 | < 10 | < 10 | CN1CCN(c2ccc(-c3oc(-c4c(F)cccc4F)nc3C(N)=O)cc2)CC1 [Example H-1, 2-(2,6-difluorophenyl)-5-(4-(4-methylpiperazin-1-yl)phenyl)oxazole-4-carboxamide]
< 10 | < 10 | < 10 | CN1CCN(c2ccc(-c3oc(-c4c(F)cccc4F)nc3C(N)=O)cn2)CC1 [Example H-2, 2-(2,6-difluorophenyl)-5-(6-(4-methylpiperazin-1-yl)pyridin-3-yl)oxazole-4-carboxamide]
< 10 | < 10 | < 10 | CC(=O)N1CCN(c2ccc(-c3oc(-c4c(F)cccc4F)nc3C(N)=O)cc2)CC1 [Example I-1, 5-(4-(4-acetylpiperazin-1-yl)phenyl)-2-(2,6-difluorophenyl)oxazole-4-carboxamide]
< 10 | < 10 | < 10 | CC(=O)N1CCN(c2ccc(-c3oc(-c4c(F)cccc4F)nc3C(N)=O)cn2)CC1 [Example I-2, 5-(6-(4-acetylpiperazin-1-yl)pyridin-3-yl)-2-(2,6-difluorophenyl)oxazole-4-carboxamide]
< 10 | < 10 | < 10 | CNC(=O)N1CCN(c2ccc(-c3oc(-c4c(F)cccc4F)nc3C(N)=O)cc2)CC1 [Example J-1, 4-(4-(4-carbamoyl-2-(2,6-difluorophenyl)oxazol-5-yl)phenyl)-N-methylpiperazine-1-carboxamide]
< 10 | < 10 | < 10 | CNC(=O)N1CCN(c2ccc(-c3oc(-c4c(F)cccc4F)nc3C(N)=O)cn2)CC1 [Example J-2, 4-(5-(4-carbamoyl-2-(2,6-difluorophenyl)oxazol-5-yl)pyridin-2-yl)-N-methylpiperazine-1-carboxamide]
< 10 | < 100 | < 100 | COc1ccc(-c2oc(-c3ccccc3F)nc2C(N)=O)cc1 [Example M-3, 2-(2-fluorophenyl)-5-(4-methoxyphenyl)oxazole-4-carboxamide]
< 10 | < 10 | < 100 | COc1ccc(-c2oc(-c3cccc4[nH]ccc34)nc2C(N)=O)cc1 [Example M-4, 2-(1H-indol-4-yl)-5-(4-methoxyphenyl)oxazole-4-carboxamide]
< 10 | < 100 | < 10 | COc1ccc(-c2oc(-c3cn[nH]c3)nc2C(N)=O)cc1 [Example N-2, 5-(4-methoxyphenyl)-2-(1H-pyrazol-4-yl)oxazole-4-carboxamide]
< 100 | < 100 | < 100 | COc1ccc(-c2oc(-c3cccc(C(F)(F)F)c3F)nc2C(N)=O)cc1 [Example N-7, 2-(2-fluoro-3-(trifluoromethyl)phenyl)-5-(4-methoxyphenyl)oxazole-4-carboxamide]
< 10 | < 10 | < 10 | NC(=O)c1nc(-c2c(F)cccc2F)oc1Nc1cccc(N2CCOCC2)c1 [Example Q-2, 2-(2,6-difluorophenyl)-5-(3-morpholinophenylamino)oxazole-4-carboxamide]
< 10 | < 10 | < 10 | NC(=O)c1nc(-c2c(F)cccc2F)oc1Nc1cccc(OCCN2CCOCC2)c1 [Example Q-10, 2-(2,6-difluorophenyl)-5-(3-(2-morpholinoethoxy)phenylamino)oxazole-4-carboxamide]
< 10 | < 10 | < 10 | NC(=O)c1nc(-c2c(F)cccc2F)oc1Nc1cccc(N2CCNCC2)c1 [Example Q-12, 2-(2,6-difluorophenyl)-5-(3-(piperazin-1-yl)phenylamino)oxazole-4-carboxamide formate salt]
< 10 | < 10 | < 100 | NC(=O)c1nc(-c2c(F)cccc2F)oc1Nc1ccc(N2CCCCC2)cc1 [Example Q-13, 2-(2,6-difluorophenyl)-5-(4-(piperidin-1-yl)phenylamino)oxazole-4-carboxamide]
< 10 | < 10 | < 10 | NC(=O)c1nc(-c2c(F)cccc2F)oc1Nc1ccc(N2CCCNCC2)cc1 [Example Q-15, 5-(4-(1,4-diazepan-1-yl)phenylamino)-2-(2,6-difluorophenyl)oxazole-4-carboxamide]
< 10 | < 10 | < 10 | NC(=O)c1nc(-c2c(F)cccc2F)oc1Nc1ccc(OC2CCNCC2)cc1 [Example Q-16, 2-(2,6-difluorophenyl)-5-(4-(piperidin-4-yloxy)phenylamino)oxazole-4-carboxamide]
< 10 | < 10 | < 10 | NC(=O)c1nc(-c2c(F)cccc2F)oc1Nc1ccc(N2CCNC(=O)C2)cc1 [Example Q-19, 2-(2,6-difluorophenyl)-5-(4-(3-oxopiperazin-1-yl)phenylamino)oxazole-4-carboxamide]
< 10 | < 10 | < 10 | CN(C)C(=O)c1ccc(Nc2oc(-c3c(F)cccc3F)nc2C(N)=O)cc1 [Example Q-20, 2-(2,6-difluorophenyl)-5-(4-(dimethylcarbamoyl)phenylamino)oxazole-4-carboxamide]
< 10 | < 10 | < 10 | NC(=O)c1nc(-c2c(F)cccc2F)oc1Nc1ccc(C(=O)N2CCCCC2)cc1 [Example Q-21, 2-(2,6-difluorophenyl)-5-(4-(piperidine-1-carbonyl)phenylamino)oxazole-4-carboxamide]
< 10 | < 10 | < 10 | NC(=O)c1nc(-c2c(F)cccc2F)oc1Nc1ccc(C(=O)N2CCNCC2)cc1 [Example Q-22, 2-(2,6-difluorophenyl)-5-(4-(piperazine-1-carbonyl)phenylamino)oxazole-4-carboxamide]
< 10 | < 10 | < 10 | NC(=O)c1nc(-c2ccccc2F)oc1Nc1ccc(N2CCOCC2)cc1 [Example Q-23, 2-(2-Fluorophenyl)-5-(4-morpholinophenylamino)oxazole-4-carboxamide]
